The values that follow come from patent US20260193264A1, “BENZOYPARAZINE PYRAZINES AND THEIR USES” (FOGHORN THERAPEUTICS INC., priority 2022, published 2026).

For assay [1], the target named is T1, HiBit-BRG1 fusion protein in stable HeLa cell line expressing HiBit-BRG1 and LgBit (Homo sapiens, UniProt P51532).
T1 construct: expressed in transfected cells
Description: HiBiT-BRG1 cell-based degradation assay (Nano-Glo HiBiT, 24 h). The settings on record: HeLa HiBit-BRG1/LgBit cells; for DC50: read-out: BRMG1 HiBit Degradation IC50; for Dmax: top dose 30 μM, read-out: BRG1 HiBit Degradation Maximum (%). Summed up: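 Stable HeLa line co-expressing HiBiT-BRG1 and LgBiT, compound-treated 24 h; luminescence read after Nano-Glo HiBiT lytic reagent. % degradation normalised between DMSO (high control) and 2 μM reference BRM/BRG1 degrader (low control).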

Assay [2] deals with T2, HiBiT-BRM fusion protein in stable HeLa cell line (Homo sapiens, UniProt P51531).
T2 construct: expressed in transfected cells
The experiment in a line: HiBiT-BRM cell-based degradation assay (Nano-Glo HiBiT Lytic Detection, 24 h). More on the design: DC50: scale not given here. The conditions noted are these: HeLa HiBiT-BRM cells; for DC50: read-out: BRM HiBit Degradation IC50; for BRM HiBit Degradation Maximum (%): top dose 30 μM. Summed up: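 Luminescence from HiBiT/LgBiT complementation after lysis reports remaining HiBiT-BRM in stable HeLa cells exposed to compound for 24 h. Dosing used 3-fold serial dilutions, 10 points, 30 μM top final concentration. DMSO and a 2 μM BRM/BRG1 degrader standard defined 0% and 100% degradation.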

T1 sequence (P51532 whole entry, the tested form may be a part): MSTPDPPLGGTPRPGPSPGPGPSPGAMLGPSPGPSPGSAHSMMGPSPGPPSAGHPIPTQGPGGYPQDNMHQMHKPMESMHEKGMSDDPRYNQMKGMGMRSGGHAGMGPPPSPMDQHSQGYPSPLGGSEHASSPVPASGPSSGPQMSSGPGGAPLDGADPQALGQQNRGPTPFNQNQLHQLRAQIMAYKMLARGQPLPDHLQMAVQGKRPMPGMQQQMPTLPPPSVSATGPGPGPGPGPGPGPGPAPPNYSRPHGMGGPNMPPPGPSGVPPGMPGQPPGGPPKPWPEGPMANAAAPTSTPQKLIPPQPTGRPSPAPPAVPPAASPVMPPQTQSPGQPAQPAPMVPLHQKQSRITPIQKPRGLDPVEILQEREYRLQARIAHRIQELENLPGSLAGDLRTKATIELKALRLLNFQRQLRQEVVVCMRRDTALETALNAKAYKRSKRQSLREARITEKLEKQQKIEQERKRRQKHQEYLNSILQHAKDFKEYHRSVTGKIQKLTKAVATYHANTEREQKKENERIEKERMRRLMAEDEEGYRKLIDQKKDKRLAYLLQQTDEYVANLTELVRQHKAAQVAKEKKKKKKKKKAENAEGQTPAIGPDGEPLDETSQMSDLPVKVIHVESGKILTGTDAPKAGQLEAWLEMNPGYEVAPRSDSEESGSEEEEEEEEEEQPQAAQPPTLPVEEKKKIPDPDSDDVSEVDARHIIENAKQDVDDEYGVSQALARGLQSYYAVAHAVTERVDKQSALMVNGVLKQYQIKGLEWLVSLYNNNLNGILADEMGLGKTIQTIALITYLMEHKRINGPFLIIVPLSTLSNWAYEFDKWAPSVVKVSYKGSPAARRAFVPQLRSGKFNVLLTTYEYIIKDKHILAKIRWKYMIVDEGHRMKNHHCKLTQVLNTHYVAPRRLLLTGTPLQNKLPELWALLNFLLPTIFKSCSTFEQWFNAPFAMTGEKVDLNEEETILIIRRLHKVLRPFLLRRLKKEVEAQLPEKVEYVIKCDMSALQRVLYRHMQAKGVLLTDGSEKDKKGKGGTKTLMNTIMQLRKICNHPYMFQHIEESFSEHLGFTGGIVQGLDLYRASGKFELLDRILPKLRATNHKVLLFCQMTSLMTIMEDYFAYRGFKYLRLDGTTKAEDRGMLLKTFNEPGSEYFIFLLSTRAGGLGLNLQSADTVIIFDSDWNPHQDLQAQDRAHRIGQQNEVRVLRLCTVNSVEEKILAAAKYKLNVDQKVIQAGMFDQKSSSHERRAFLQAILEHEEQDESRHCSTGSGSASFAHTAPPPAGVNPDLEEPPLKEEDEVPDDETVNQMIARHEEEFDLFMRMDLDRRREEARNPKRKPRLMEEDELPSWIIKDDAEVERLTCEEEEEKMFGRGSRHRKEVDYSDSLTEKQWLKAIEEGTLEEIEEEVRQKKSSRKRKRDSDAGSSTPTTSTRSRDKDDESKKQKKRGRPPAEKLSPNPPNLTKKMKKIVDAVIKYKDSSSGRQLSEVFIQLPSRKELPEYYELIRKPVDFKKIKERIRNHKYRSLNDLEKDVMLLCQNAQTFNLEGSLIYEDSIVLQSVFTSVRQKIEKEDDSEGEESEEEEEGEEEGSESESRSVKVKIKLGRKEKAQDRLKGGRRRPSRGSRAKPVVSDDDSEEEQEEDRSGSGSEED
T2 sequence (P51531 whole entry, the tested form may be a part): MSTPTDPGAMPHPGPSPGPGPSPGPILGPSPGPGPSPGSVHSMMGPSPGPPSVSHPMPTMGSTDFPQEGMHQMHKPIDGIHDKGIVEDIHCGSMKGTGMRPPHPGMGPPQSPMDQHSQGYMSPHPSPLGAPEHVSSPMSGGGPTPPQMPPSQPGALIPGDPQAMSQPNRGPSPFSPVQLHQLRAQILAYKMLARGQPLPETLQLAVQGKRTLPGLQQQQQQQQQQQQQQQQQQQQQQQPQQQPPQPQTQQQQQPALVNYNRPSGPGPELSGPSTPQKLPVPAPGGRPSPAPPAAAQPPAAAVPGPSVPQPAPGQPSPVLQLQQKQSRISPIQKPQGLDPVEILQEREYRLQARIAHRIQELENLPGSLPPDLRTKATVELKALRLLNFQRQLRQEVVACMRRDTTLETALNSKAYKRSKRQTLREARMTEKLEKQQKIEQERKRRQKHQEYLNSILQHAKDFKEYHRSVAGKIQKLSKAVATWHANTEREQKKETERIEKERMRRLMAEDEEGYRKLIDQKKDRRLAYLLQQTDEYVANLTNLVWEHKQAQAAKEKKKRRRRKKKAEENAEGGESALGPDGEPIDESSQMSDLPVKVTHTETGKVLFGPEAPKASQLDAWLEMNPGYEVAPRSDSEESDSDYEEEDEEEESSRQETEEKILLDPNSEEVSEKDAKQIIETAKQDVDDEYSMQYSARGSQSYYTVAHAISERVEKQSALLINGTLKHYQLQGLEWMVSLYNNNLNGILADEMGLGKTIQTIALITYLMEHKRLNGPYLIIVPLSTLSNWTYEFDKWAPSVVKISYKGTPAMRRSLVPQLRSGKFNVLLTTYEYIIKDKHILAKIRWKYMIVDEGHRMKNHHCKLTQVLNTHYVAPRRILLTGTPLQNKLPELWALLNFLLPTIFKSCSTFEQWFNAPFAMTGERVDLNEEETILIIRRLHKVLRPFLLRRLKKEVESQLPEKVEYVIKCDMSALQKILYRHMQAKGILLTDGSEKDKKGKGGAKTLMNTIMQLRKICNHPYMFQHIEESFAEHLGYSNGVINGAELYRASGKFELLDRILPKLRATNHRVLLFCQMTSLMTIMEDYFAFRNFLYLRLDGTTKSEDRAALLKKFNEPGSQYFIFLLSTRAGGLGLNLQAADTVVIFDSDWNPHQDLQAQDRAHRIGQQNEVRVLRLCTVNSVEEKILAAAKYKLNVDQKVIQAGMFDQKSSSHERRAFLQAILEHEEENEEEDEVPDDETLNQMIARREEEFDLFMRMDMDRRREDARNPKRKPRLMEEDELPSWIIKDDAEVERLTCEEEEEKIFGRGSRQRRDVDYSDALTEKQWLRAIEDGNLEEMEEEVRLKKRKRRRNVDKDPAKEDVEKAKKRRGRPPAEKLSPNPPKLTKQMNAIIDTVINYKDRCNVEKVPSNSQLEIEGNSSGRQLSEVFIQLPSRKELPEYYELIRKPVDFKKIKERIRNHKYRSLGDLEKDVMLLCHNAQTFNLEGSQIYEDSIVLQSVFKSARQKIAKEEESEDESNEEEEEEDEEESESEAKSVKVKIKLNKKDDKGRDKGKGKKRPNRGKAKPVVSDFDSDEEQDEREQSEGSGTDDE

In the case of `COc1cc2cc(-c3ccccc3O)nnc2cc1CN1CC[C@@H](N2CCN(c3cc([C@H](C(=O)N4C[C@H](O)C[C@H]4C(=O)N[C@@H](C)c4ccc(-c5scnc5C)cc4)C(C)C)on3)CC2)C(F)(F)C1` [Compound 218, (2S,4R)-1-[(2R)-2-(3-{4-[(4R)-3,3-difluoro-1-{[3-(2-hydroxyphenyl)-6-methoxycinnolin-7-yl]methyl}piperidin-4-yl]piperazin-1-yl}-1,2-oxazol-5-yl)-3-methylbutanoyl]-4-hydroxy-N-[(1S)-1-[4-(4-methyl-1,3-thiazol-5-yl)phenyl]ethyl]pyrrolidine-2-carboxamide], in assay [1], the DC50 was more than 10 nM and the Dmax is more than 75%. In addition, in assay [2], the DC50 was less than 10 nM and the “BRM HiBit Degradation Maximum (%)” value is on record as “A (“A” indicates maximum degradation ≥75%)”.
Regarding `Cc1ncsc1-c1ccc([C@H](C)NC(=O)[C@@H]2C[C@@H](O)CN2C(=O)[C@@H](c2cc(-c3ccc4nnc(-c5ccccc5O)cc4c3)no2)C(C)C)cc1` [Compound 97, (2S,4R)-4-hydroxy-1-[(2R)-2-{3-[3-(2-hydroxyphenyl)cinnolin-6-yl]-1,2-oxazol-5-yl}-3-methylbutanoyl]-N-[(1S)-1-[4-(4-methyl-1,3-thiazol-5-yl)phenyl]ethyl]pyrrolidine-2-carboxamide], in assay [1], the DC50 is less than 10 nM and the Dmax is more than 75%. Moreover, in assay [2], the DC50 is less than 10 nM and the “BRM HiBit Degradation Maximum (%)” value is “A (“A” indicates maximum degradation ≥75%)”.
`Cc1ncsc1-c1ccc([C@H](C)NC(=O)[C@@H]2C[C@@H](O)CN2C(=O)C(C(C)C)n2cc(N3CCCC(CN4CCN(c5ccc6nnc(-c7ccccc7O)cc6c5)CC4)C3)nn2)cc1` (stereo partly drawn) [Compound 270, (2S,4R)-4-hydroxy-1-(2-(4-(3-((4-(3-(2-hydroxyphenyl)cinnolin-6-yl)piperazin-1-yl)methyl)piperidin-1-yl)-1H-1,2,3-triazol-1-yl)-3-methylbutanoyl)-N-((S)-1-(4-(4-methylthiazol-5-yl)phenyl)ethyl)pyrrolidine-2-carboxamide]: in assay [1], the DC50 is more than 10 nM and the Dmax is more than 75%. In addition, in assay [2], the DC50 was less than 10 nM and the “BRM HiBit Degradation Maximum (%)” value is recorded as “A (“A” indicates maximum degradation ≥75%)”.
With `CC(C)[C@@H](C(=O)N1C[C@H](O)C[C@H]1C(=O)N[C@@H](C)c1ccccc1)c1cc(N2CC[C@H](c3ccc4cc(-c5ccccc5O)nnc4c3)C2)no1` [Compound 118, (2S,4R)-4-hydroxy-1-((R)-2-(3-((R)-3-(3-(2-hydroxyphenyl)cinnolin-7-yl)pyrrolidin-1-yl)isoxazol-5-yl)-3-methylbutanoyl)-N-((S)-1-phenylethyl)pyrrolidine-2-carboxamide], the Dmax in assay [1] was less than 50%. Moreover, in assay [2], the DC50 was more than 10 nM and the “BRM HiBit Degradation Maximum (%)” value is recorded as “A (“A” indicates maximum degradation ≥75%)”.
In the same order, the values of `Cc1ncsc1-c1ccc([C@H](C)NC(=O)[C@@H]2C[C@@H](O)CN2C(=O)C(C(C)C)n2cc(N3CCC4(CCN4c4ccc5cc(-c6ccccc6O)nnc5c4)C3)nn2)cc1` (stereo partly drawn) [Compound 264, (2S,4R)-4-hydroxy-1-(2-(4-(1-(3-(2-hydroxyphenyl)cinnolin-7-yl)-1,6-diazaspiro[3.4]octan-6-yl)-1H-1,2,3-triazol-1-yl)-3-methylbutanoyl)-N-((S)-1-(4-(4-methylthiazol-5-yl)phenyl)ethyl)pyrrolidine-2-carboxamide] are less than 50%, more than 10 nM and “A (“A” indicates maximum degradation ≥75%)”.
Take `Cc1ncsc1-c1ccc([C@H](C)NC(=O)[C@@H]2C[C@@H](O)CN2C(=O)[C@@H](c2cc(N3CCC[C@H](c4ccc5cc(-c6ccccc6O)nnc5c4)C3)no2)C(C)C)cc1` [Compound 90, (2S,4R)-4-hydroxy-1-((R)-2-(3-((R)-3-(3-(2-hydroxyphenyl)cinnolin-7-yl)piperidin-1-yl)isoxazol-5-yl)-3-methylbutanoyl)-N-((S)-1-(4-(4-methylthiazol-5-yl)phenyl)ethyl)pyrrolidine-2-carboxamide]: in assay [1], the DC50 is less than 10 nM and the Dmax was more than 75%. For the same compound, in assay [2], the DC50 was less than 10 nM and the “BRM HiBit Degradation Maximum (%)” value was “A (“A” indicates maximum degradation ≥75%)”.
With `Cc1ncsc1-c1ccc([C@H](C)NC(=O)[C@@H]2C[C@@H](O)CN2C(=O)[C@@H](c2cc(-c3cnc(N4CC(c5cc6nnc(-c7ccccc7O)cc6cc5C5CC5)C4)nc3)no2)C(C)C)cc1` [Compound 68, (2S,4R)-1-((R)-2-(3-(2-(3-(6-cyclopropyl-3-(2-hydroxyphenyl)cinnolin-7-yl)azetidin-1-yl)pyrimidin-5-yl)isoxazol-5-yl)-3-methylbutanoyl)-4-hydroxy-N-((S)-1-(4-(4-methylthiazol-5-yl)phenyl)ethyl)pyrrolidine-2-carboxamide], in assay [1], the DC50 is more than 10 nM and the Dmax is more than 75%. In assay [2], the DC50 was less than 10 nM and the “BRM HiBit Degradation Maximum (%)” value is on record as “A (“A” indicates maximum degradation ≥75%)”.
`Cc1ncsc1-c1ccc([C@H](C)NC(=O)[C@@H]2C[C@@H](O)CN2C(=O)[C@@H](c2cc(N3CCC4(CC3)CC(c3ccc5nnc(-c6ccccc6O)cc5c3)C4)no2)C(C)C)cc1` [Compound 71, (2S,4R)-4-hydroxy-1-[(2R)-2-(3-{2-[3-(2-hydroxyphenyl)cinnolin-6-yl]-7-azaspiro[3.5]nonan-7-yl}-1,2-oxazol-5-yl)-3-methylbutanoyl]-N-[(1S)-1-[4-(4-methyl-1,3-thiazol-5-yl)phenyl]ethyl]pyrrolidine-2-carboxamide]: in assay [1], the DC50 is less than 10 nM and the Dmax was more than 75%. Besides, in assay [2], the DC50 is less than 10 nM and the “BRM HiBit Degradation Maximum (%)” value is listed as “A (“A” indicates maximum degradation ≥75%)”.
For the compound `Cc1ncsc1-c1ccc([C@H](C)NC(=O)[C@@H]2C[C@@H](O)CN2C(=O)[C@H](c2cc(-c3cnc(N4CC(c5ccc6nnc(-c7ccccc7O)cc6c5)C4)nc3)no2)C(C)C)cc1` [Compound 5, (2S,4R)-4-hydroxy-1-[(2S)-2-[3-(2-{3-[3-(2-hydroxyphenyl)cinnolin-6-yl]azetidin-1-yl}pyrimidin-5-yl)-1,2-oxazol-5-yl]-3-methylbutanoyl]-N-[(1S)-1-[4-(4-methyl-1,3-thiazol-5-yl)phenyl]ethyl]pyrrolidine-2-carboxamide], in assay [1], the Dmax is less than 50%. In assay [2], the DC50 is more than 100 nM and the “BRM HiBit Degradation Maximum (%)” value is “B (“B” indicates maximum degradation ≥50%)”.
`COc1cc2nnc(-c3ccccc3O)cc2cc1C1CN(c2ncc(-c3cc([C@H](C(=O)N4C[C@H](O)C[C@H]4C(=O)N[C@@H](C)c4ccc(-c5scnc5C)cc4)C(C)C)on3)cn2)C1` [Compound 24]: in assay [1], the DC50 was less than 10 nM and the Dmax was more than 75%. Also, in assay [2], the DC50 was less than 10 nM and the “BRM HiBit Degradation Maximum (%)” value is on record as “A (“A” indicates maximum degradation ≥75%)”.
With `Cc1ncsc1-c1ccc([C@H](C)NC(=O)[C@@H]2C[C@@H](O)CN2C(=O)[C@H](c2cc(-c3cnc(N4CC(c5ccc6cc(-c7ccccc7O)nnc6c5)C4)nc3)no2)C(C)C)cc1` [Compound 12, (2S,4R)-4-hydroxy-1-[(2S)-2-[3-(2-{3-[3-(2-hydroxyphenyl)cinnolin-7-yl]azetidin-1-yl}pyrimidin-5-yl)-1,2-oxazol-5-yl]-3-methylbutanoyl]-N-[(1S)-1-[4-(4-methyl-1,3-thiazol-5-yl)phenyl]ethyl]pyrrolidine-2-carboxamide], in assay [1], the Dmax is less than 50%. Also, in assay [2], the DC50 is more than 100 nM and the “BRM HiBit Degradation Maximum (%)” value is given as “C (“C” indicates maximum degradation <50%)”.
